Bounds are passed on as bounds.

Assay [1] concerns the target T1, human SLC6A19 (Homo sapiens, UniProt Q695T7).
T1 construct: expressed in transfected cells
T1 sequence (Q695T7 1-634): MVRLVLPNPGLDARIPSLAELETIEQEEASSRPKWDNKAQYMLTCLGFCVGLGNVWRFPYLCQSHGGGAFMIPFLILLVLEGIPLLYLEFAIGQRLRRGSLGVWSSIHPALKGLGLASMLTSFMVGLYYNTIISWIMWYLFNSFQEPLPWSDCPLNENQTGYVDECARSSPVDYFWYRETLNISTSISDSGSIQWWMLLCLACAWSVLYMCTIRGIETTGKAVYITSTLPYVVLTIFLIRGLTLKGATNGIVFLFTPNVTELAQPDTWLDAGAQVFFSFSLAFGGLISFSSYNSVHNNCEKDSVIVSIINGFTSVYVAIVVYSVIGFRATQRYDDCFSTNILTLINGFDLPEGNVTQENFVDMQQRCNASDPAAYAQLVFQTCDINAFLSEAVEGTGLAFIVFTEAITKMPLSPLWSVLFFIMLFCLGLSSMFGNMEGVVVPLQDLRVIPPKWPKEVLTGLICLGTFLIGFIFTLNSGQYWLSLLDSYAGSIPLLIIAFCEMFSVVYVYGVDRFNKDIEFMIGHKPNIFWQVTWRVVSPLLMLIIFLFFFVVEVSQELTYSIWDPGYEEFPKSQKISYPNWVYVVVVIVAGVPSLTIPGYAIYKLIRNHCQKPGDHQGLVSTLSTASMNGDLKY
T1 sequence (Q9HBJ8 15-222 partner): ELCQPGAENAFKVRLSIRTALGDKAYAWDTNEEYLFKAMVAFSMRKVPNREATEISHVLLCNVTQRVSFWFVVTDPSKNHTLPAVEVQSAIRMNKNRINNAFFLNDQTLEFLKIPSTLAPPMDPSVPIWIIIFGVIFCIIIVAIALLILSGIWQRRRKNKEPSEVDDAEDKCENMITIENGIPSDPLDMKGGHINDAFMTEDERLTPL
The assay can be described thus: Example B-1: L-[3H]leucine uptake, liquid scintillation, in CHO cells with doxycycline-inducible expression of human SLC6A19 and TMEM27. Type of assay: cell-based. Particulars: read-out: SLC6A19_Radioligand Uptake Assay IC50. How it is done: CHO cells with doxycycline-inducible expression of human SLC6A19 and TMEM27 were maintained in T150 cell culture treated flasks using cell culture media, which consisted of 1×DMEM/F12 (Gibco, 11330057), 10% Tet System-Approved FBS (Gibco, A4736401), 100 U/mL Penicillin-Streptomycin (Gibco, 15140122), 1×GlutaMAX™ Supplement (Gibco, 35050061), 1 mM Sodium Pyruvate (Gibco, 11360070), 1.1 mg/mL Sodium Bicarbonate (Gibco, 25080094), 5 μg/mL Blasticidin (InvivoGen, ant-bl-1), 150 μg/mL Hygromycin B Gold (InvivoGen, ant-hg-5), and 500 μg/mL G418 (Sigma-Aldrich, G8168-100 mL). In preparation for the assay, this media was aspirated and 5 mL of TryμLE™ Express Enzyme (Gibco, 12605010) was added to each flask to initiate cell dissociation. The flasks were then incubated (humidified, 37° C. with 5% CO2) for 2 minutes. After incubation, 10 mL of pre-warmed cell culture media was added to each flask. The cell suspension was collected and centrifuged for 5 minutes at 200xg.
The supernatant was aspirated and the pellet was resuspended in 5 mL pre-warmed cell culture media. The resuspended cells were counted using the Countess Cell Counting Chamber (Invitrogen) and the cell concentration of the suspension was readjusted to 1 million live cells/mL using pre-warmed cell culture media. 25 uL/well (25,000 cells/well) of readjusted cell suspension was dispensed into Poly-D-Lysine 384-well white/clear plates (Corning, 354660) using a MultiDrop Combi (Thermo Electron Corp). To induce expression of Human SLC6A19 and TMEM27, 25 uL/well of cell culture media containing 2 μg/mL doxycycline was added to the first 23 columns of each plate resulting in a final concentration of […] doxycycline. 25 μL/well of cell culture media was added to the last column of each plate, to act as negative control wells for Human SLC6A19 and TMEM27 expression. Assay plates were then incubated (humidified, 37° C. with 5% CO2) for 18 hours. After incubation, the media was aspirated and the wells were washed 4 times with pre-warmed HBSS (Sigma-Aldrich, H8264-1L) using an Apricot S-Pipette S2 (Apricot Designs), such that 5 uL/well HBSS was remaining at the end of each wash. […] At this step, the final in-well DMSO concentration in the assay plate is 0.5%. All compounds were plated in a duplicate 8-point dilution series that consisted of 3-fold dilutions. […] Afterwards, 15 uL/well of 3.2 mM hot:cold leucine solution (1:15000 ratio of L-[3,4,5-3H(N)] Leucine (Perkin Elmer, NET460001MC) to L-Leucine (Sigma-Aldrich, L8912-25G) diluted with HBSS (Sigma-Aldrich, H8264-1L)) was added using the Viaflo 384 (Integra), for a final concentration of 1.6 mM hot:cold leucine solution. The plates were then incubated (humidified, 37° C. with 5% CO2) for 20 minutes to conduct the uptake reaction. Immediately after the incubation, the plates were washed 4 times with HBSS (Sigma-Aldrich, H8264-1L) using the ELx405 Microplate Washer (Biotek) to terminate the uptake reaction. After the washes, 50 uL/well Ultima Gold Scintillation Cocktail (Perkin Elmer, 6013326) was added to each well using the Viaflo 384 (Integra). The plates were then incubated (humidified, 37° C. with 5% CO2) on a plate shaker at 200 rpm for 2 hours. After incubation, the plates were removed from the shaker and kept at room temperature for 15 minutes.
Liquid scintillation analysis was performed using the MicroBeta2 Microplate Counter (Perkin Elmer). Activity (%) was derived by normalizing the average of positive control compound treated wells to 0% and the average of DMSO (negative control) wells to 100%. Collaborative Drug Discovery software was used for graphing data.

For assay [2], the target named is T1, human SLC6A19. As to the kind of experiment: Example B2: 13C6,15N-isoleucine uptake, RapidFire mass spectrometry, in CHO cells with doxycycline-inducible expression of human SLC6A19 and TMEM27. Type of assay: cell-based. Particulars: read-out: SLC6A19_RapidFire Uptake Assay IC50. Summed up:
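CHO cells were induced with doxycycline to express human SLC6A19 with TMEM27, then pre-incubated 20 min at 37 °C with compounds (2-fold, 10-point, duplicate). Uptake of 13C6,15N-isoleucine (2 mM solution added) over a further 20 min was measured by RapidFire mass spectrometry, using 13C-leucine as internal standard.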

Take `CN(C(=O)NCc1cc2cc(Cl)ccc2[nH]1)[C@@H]1CCCN(C(=O)Cc2ccno2)C1` [Compound 194, (R)-3-((5-chloro-1H-indol-2-yl)methyl)-1-(1-(2-(isoxazol-5-yl)acetyl)piperidin-3-yl)-1-methylurea]: the figures for the IC50 in assay [1] and in assay [2] were 197 nM and 242 nM, respectively.
The like results for `CC(=O)N1CCC[C@@H](N(CC(F)(F)F)C(=O)NCc2cc3cc(Cl)ccc3[nH]2)C1` [Compound 195, (R)-1-(1-acetylpiperidin-3-yl)-3-((5-chloro-1H-indol-2-yl)methyl)-1-(2,2,2-trifluoroethyl)urea] were, in that order, 102 nM and 62 nM.
Taken in the same sequence, the figures for `CN(C(=O)NCc1cc2cc(Cl)ccc2[nH]1)[C@@H]1CCCN(C(=O)c2ccccc2O)C1` [Compound 196, (R)-3-((5-chloro-1H-indol-2-yl)methyl)-1-(1-(2-hydroxybenzoyl)piperidin-3-yl)-1-methylurea] were 640 nM and 518 nM.
Taken in the same sequence, the figures for `CN(C(=O)NCc1cc2cc(Cl)ccc2[nH]1)[C@@H]1CCCN(C(=O)Cc2ccn(C)n2)C1` [Compound 197, (R)-3-((5-chloro-1H-indol-2-yl)methyl)-1-methyl-1-(1-(2-(1-methyl-1H-pyrazol-3-yl)acetyl)piperidin-3-yl)urea] were 219 nM and 396 nM.
In the case of `CN(C(=O)NCc1cc2cc(Cl)ccc2[nH]1)[C@@H]1CCCN(C(=O)c2ccn(CC(F)(F)F)n2)C1` [Compound 198, (R)-3-((5-chloro-1H-indol-2-yl)methyl)-1-methyl-1-(1-(1-(2,2,2-trifluoroethyl)-1H-pyrazole-3-carbonyl)piperidin-3-yl)urea], the values for the IC50 in assay [1] and in assay [2] were 232 nM and 163 nM, respectively.
With `CN(C(=O)NCc1cc2cc(Cl)ccc2[nH]1)[C@@H]1CCCN(C(=O)Cc2cn[nH]c2)C1` [Compound 199, (R)-1-(1-(2-(1H-pyrazol-4-yl)acetyl)piperidin-3-yl)-3-((5-chloro-1H-indol-2-yl)methyl)-1-methylurea], the IC50 came to 434 nM in assay [1] and 582 nM in assay [2].
The like results for `Cc1nc(C(=O)N2CCC[C@@H](N(C)C(=O)NCc3cc4cc(Cl)ccc4[nH]3)C2)co1` [Compound 200, (R)-3-((5-chloro-1H-indol-2-yl)methyl)-1-methyl-1-(1-(2-methyloxazole-4-carbonyl)piperidin-3-yl)urea] were, in that order, 350 nM and 512 nM.
Consider `CN(C(=O)NCc1cc2cc(Cl)ccc2[nH]1)[C@@H]1CCCN(C(=O)Cc2ccon2)C1` [Compound 201, (R)-3-((5-chloro-1H-indol-2-yl)methyl)-1-(1-(2-(isoxazol-3-yl)acetyl)piperidin-3-yl)-1-methylurea], for which the IC50 in assay [1] worked out at 205 nM; in assay [2], 227 nM.
The like results for `CN(C(=O)NCc1cc2cc(Cl)ccc2[nH]1)[C@@H]1CCCN(C(=O)Cc2cocn2)C1` [Compound 202, (R)-3-((5-chloro-1H-indol-2-yl)methyl)-1-methyl-1-(1-(2-(oxazol-4-yl)acetyl)piperidin-3-yl)urea] were, in that order, 168 nM and 689 nM.
Regarding `CN(C(=O)NCc1cc2cc(Cl)ccc2[nH]1)[C@@H]1CCCN(C(=O)Cc2ncco2)C1` [Compound 204, (R)-3-((5-chloro-1H-indol-2-yl)methyl)-1-methyl-1-(1-(2-(oxazol-2-yl)acetyl)piperidin-3-yl)urea], the IC50 worked out at 256 nM in assay [1] and 763 nM in assay [2].
Taken in the same sequence, the figures for `CCc1ccc2[nH]c(CNC(=O)N(C)[C@@H]3CCCN(C(C)=O)C3)cc2c1` [Compound 217, (R)-1-(1-acetylpiperidin-3-yl)-3-((5-ethyl-1H-indol-2-yl)methyl)-1-methylurea] were 574 nM and 738 nM.
Taken in the same sequence, the figures for `CC(=O)N1CCC[C@@H](N(C)C(=O)NCc2cc3cc(C)ccc3[nH]2)C1` [Compound 218, (R)-1-(1-acetylpiperidin-3-yl)-1-methyl-3-((5-methyl-1H-indol-2-yl)methyl)urea] were 273 nM and 647 nM.
As for `CCc1ccc2cc(CNC(=O)N(C)[C@@H]3CCCN(C(C)=O)C3)[nH]c2c1` [Compound 219, (R)-1-(1-acetylpiperidin-3-yl)-3-((6-ethyl-1H-indol-2-yl)methyl)-1-methylurea], the IC50 is over 10000 nM in assay [1] and 12900 nM in assay [2].
For `CC(=O)N1CCC[C@@H](N(C)C(=O)NCc2cc3cc(C4CC4)ccc3[nH]2)C1` [Compound 220, (R)-1-(1-acetylpiperidin-3-yl)-3-((5-cyclopropyl-1H-indol-2-yl)methyl)-1-methylurea], the results for the IC50 in assay [1] and in assay [2] were 794 nM and 953 nM, respectively.
The like results for `CC(=O)N1CCC[C@@H](N(C(=O)NCc2cc3cc(Cl)ccc3[nH]2)C(C)C)C1` [Compound 221, (R)-1-(1-acetylpiperidin-3-yl)-3-((5-chloro-1H-indol-2-yl)methyl)-1-isopropylurea] were, in that order, 2410 nM and 4610 nM.
As for `CC(=O)N1CCC[C@@H](N(C(=O)NCc2cc3cc(Cl)ccc3[nH]2)C2CC2)C1` [Compound 222, (R)-1-(1-acetylpiperidin-3-yl)-3-((5-chloro-1H-indol-2-yl)methyl)-1-cyclopropylurea], the IC50 was determined as 193 nM in assay [1] and 63.3 nM in assay [2].
The like results for `CCN(C(=O)NCc1cc2cc(Cl)ccc2[nH]1)[C@@H]1CCCN(C(=O)C2CCC2)C1` [Compound 232, (R)-3-((5-chloro-1H-indol-2-yl)methyl)-1-(1-(cyclobutanecarbonyl)piperidin-3-yl)-1-ethylurea] were, in that order, 230 nM and 45.3 nM.
As for `CC(=O)N1CCC[C@@H](N(C)C(=O)NCc2cc3[nH]cc(C)c3cc2C)C1` [Compound 233, (R)-1-(1-acetylpiperidin-3-yl)-3-((3,5-dimethyl-1H-indol-6-yl)methyl)-1-methylurea], the IC50 was determined as 15600 nM in assay [1] and 9120 nM in assay [2].

Usually IC50 stands for the concentration that gives 50% inhibition.
